{"source": "patent US20220072098A1", "about": "(priority 2012, published 2022)", "molecules": {"B1": {"name": "GDNF: glial cell line-derived neurotrophic factor, human (protein, UniProt P39905 78-211, looked up)", "Glial cell line-derived …": "SPDKQMAVLPRRERNRQAAAANPENSRGKGRRGQRGKNRGCVLTAIHLNVTDLGLGYETKEELIFRYCSGSCDAAETTYDKILKNLSRNRRLVSDKVGQACCRPIAFDDDLSFLDDNLVYHILRKHSAKRCGCI"}, "B2": {"name": "trypsinogen: model protein for GDNF, from bovine pancreas (protein, UniProt P00760 18-246, looked up)", "pro-form": "VDDDDKIVGGYTCGANTVPYQVSLNSGYHFCGGSLINSQWVVSAAHCYKSGIQVRLGEDNINVVEGNEQFISASKSIVHPSYNSNTLNNDIMLIKLKSAASLNSRVASISLPTSCASAGTQCLISGWGNTKSSGTSYPDVLKCLKAPILSDSSCKSAYPGQITSNMFCAGYLEGGKDSCQGDSGGPVVCSGKLQGIVSWGSGCAQKNKPGVYTKVCNYVSWIKQTIASN", "modifications": "pro-form", "notes": "model protein for GDNF, from bovine pancreas"}}, "key": {"[1]": {"assay": "CF concentration in brain after i.v. injection of CF-loaded vesicles", "format": "in vivo, mice", "conditions": "30 min", "procedure": "Unless otherwise stated, animals were pretreated 15 min before the injection of the test material by pyridostigmine (o.5 mg/kg, i.m.) to inhibit peripheral ChE and thus, reduce vesicle decapsulation in the blood circulation before they enter the brain. The test material was injected i.v. into the tail vein in a volume of 100-200 µl per mouse.\nThe test material (either free CF or encapsulated CF) was injected into the tail vein of mice in a volume of up to 200 μl. The quantity of encapsulated CF was always determined prior to the administration and similar amounts of either encapsulated or free CF were injected. At 30 minutes after the injection, mice were anesthetized by Xylazine-Ketamine and blood was withdrawn through cardiac puncture, the mouse was perfused with 10 ml PBS and tissues were dissected out. The specimens were homogenized in PBS, deproteinated by 5% (final concentration) of tricholoro acetic acid (TCA), centrifuged and the supernatants were used for fluorescence measurements.\nThis experiment mesure accumulation of CF in the brain following i.v. administration. […] 30 min after the injection, the animals were sacrificed, perfused with 10 ml PBS and the brains removed and homogenized, deproteinized by 5% tricholoroacetic acid and fluorescence determined in the supernatants obtained following centrifugation. […]"}, "[2]": {"assay": "Analgesia after i.v. injection of enkephalin, free or in vesicles", "conditions": "i.v. analgesic peptide (enkephalin)"}, "AChE [3]": {"target": "T1, AChE (Homo sapiens, UniProt P22303)", "T1 sequence (P22303 32-614)": "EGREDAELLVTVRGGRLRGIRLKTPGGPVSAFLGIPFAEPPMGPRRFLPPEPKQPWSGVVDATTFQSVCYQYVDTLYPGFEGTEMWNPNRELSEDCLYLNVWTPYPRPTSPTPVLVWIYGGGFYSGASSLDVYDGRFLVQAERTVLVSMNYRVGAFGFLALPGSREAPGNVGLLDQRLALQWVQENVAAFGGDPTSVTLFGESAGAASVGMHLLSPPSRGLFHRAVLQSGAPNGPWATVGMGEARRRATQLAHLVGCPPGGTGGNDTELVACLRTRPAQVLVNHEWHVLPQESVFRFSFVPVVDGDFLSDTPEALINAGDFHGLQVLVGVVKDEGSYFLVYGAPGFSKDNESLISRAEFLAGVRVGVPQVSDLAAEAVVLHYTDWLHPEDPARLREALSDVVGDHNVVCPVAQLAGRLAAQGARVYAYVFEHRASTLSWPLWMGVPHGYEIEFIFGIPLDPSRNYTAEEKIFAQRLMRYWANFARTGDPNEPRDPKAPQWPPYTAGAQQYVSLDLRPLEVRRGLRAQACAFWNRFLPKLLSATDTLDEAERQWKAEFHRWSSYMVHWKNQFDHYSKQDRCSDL", "assay": "Head group hydrolysis by AChE / choline esterases", "format": "biochemical", "procedure": "FIG. 41: Hydrolysis of the ACh head group of bioamphiphiles GLH-20 and GLH-32 by AChE. Hydrolysis was measured by determining the pH change after addition of AChE to the incubation medium and was converted to change in the proton concentration."}, "AChE [4]": {"target": "T1, AChE", "assay": "Inhibition of ATC hydrolysis by AChE (Lineweaver-Burk analysis)", "format": "biochemical", "conditions": "three concentrations; Km affected, Vmax not", "procedure": "In order to compare between the inhibitory potentials of the two bolaamphiphiles, the rate of ATC hydrolysis was measured in presence of three concentrations of the GLH compounds and assessed the results by a Lineweaver-Burk analysis."}, "[5]": {"assay": "Vesicle size and size distribution by dynamic light scattering (DLS)", "format": "physicochemical", "procedure": "Dynamic light scattering (DLS): Vesicle size and homogeneity was determined by DLS using HPPS-NIBS, light scattering apparatus (ALV-Laser, Langen, Germany) with the laser powered at 3 mW HE-Ne laser line (632.8 nm), at the Ilse Katz Institute for Nanoscale Science and Technology of BGU. Standard vesicle solutions were diluted 1:10 and loaded into a cuvette for light scattering measurements. The measurements were conducted at an angle of 173°, during 30-180 seconds, from different positions of the cell in order to avoid measurements of multiple scattering.\nZeta-potential measurements: Particle size and zeta potential were measured by using zeta potential and Particle size analyzer, ZetaPlus, (Brookhaven Instruments Corporation Ltd, NY, USA), in the range of 10-1000 nm, in the Chemistry Department of BGU. Vesicle solutions were diluted 1:10 in appropriate buffers and loaded into a 4 ml cuvette for light scattering measurements. The measurements were conducted at an angle of 90°, at 10 repeated measurements, and zeta potential was estimated as an average of 5 repeated readings."}, "[6]": {"assay": "Albumin-FITC fluorescence in cerebral cortex after i.v. injection", "format": "in vivo", "conditions": "mouse cerebral cortex fluorescence", "excerpt": "FIG. 5A: Fluorescence in mouse cerebral cortex after i.v. injection of albumin-FITC (non-encapsulated); FIG. 5B: Fluorescence in mouse cerebral cortex after i.v. injection of albumin-FITC encapsulated in GLH-20 vesicles."}, "[7]": {"assay": "Vesicle stability in storage / PBS (CF encapsulation, size)", "description": "Vesicle stability: To determine vesicle stability, samples of carboxyfluorescein (CF)-loaded vesicles (see below method for loading vesicles with CF and determination of percent encapsulation) were incubated in PBS and percent encapsulation was determined at different times.\nTo determine the stability of vesicles with encapsulated protein, vesicle samples were incubated in PBS and the percent encapsulation was determined at different times. Stability was also determined by changes in the vesicle size (by DLS, as was described in previous sections) at various time points after vesicle preparation.\nVesicle stability was evaluated by measuring both changes in the concentration of encapsulated carboxyfluorescein (CF) and vesicles size as a function of time when incubated in PBS at room temperature.\nVesicles were prepared from each of the above formulations by the method of film hydration followed by sonication as described above, and percent CF encapsulation was determined at different times in storage at 4° C."}, "[8]": {"assay": "Preliminary toxicity studies of vesicles / bolas"}, "[9]": {"assay": "Integrity of GDNF after encapsulation (SDS-PAGE)", "conditions": "monomeric and dimeric forms", "procedure": "Sodium dodecyl sulfate polyacrylamide gel electrophoresis (SDS-PAGE) was used to examine whether the encapsulation process affects the integrity of the encapsulated GDNF. The test samples were applied on a 5%−/15% SDS-polyacrylamide gel and electrophoresis was performed using a running buffer of 14.4 g glycine and 3 g Tris base per Liter with […]. The gels were then stained by Coomasie blue using the Bio-Safe Coomassie staining protocol and then destained for 30 min in water."}, "[10]": {"assay": "GDNF encapsulation in bolaamphiphilic vesicles", "format": "physicochemical", "conditions": "12.5 μg/ml GDNF (AlexaFluor-488); 10 mg/ml GLH-19 + GLH-20 vesicles", "procedure": "The encapsulation efficiencies of trypsinogen and GDNF were assessed by first running the sample through a Sephadex G-50 column to remove non-encapsulated protein from the encapsulated protein. The fractions obtained from the column (generally 0.5 ml per fraction) were treated by Triton X-100 reduced form to avoid interference with the absorbance reading of the encapsulated material at 280 nm. The concentration of trypsinogen or GDNF proteins was measured by either UV absorbance at 280 nm, or when the quantities of the proteins were low, the proteins were labeled with AlexaFluor®-488 (see procedure for labeling the proteins below) and their quantities determined by fluorescence spectroscopy. Percent encapsulation was determined by dividing the area under the curve of the vesicle fractions by the total area under the curve, which was the sum of the area under the curve of the vesicle preparation and the area under the curve of the free protein. With the use of a calibration curve the concentrations in each were determined. […]\nSince GDNF would be used at sub milligram range and its spectroscopic absorption could not be accurately measured at these concentrations, therefore, fluorescent tagging was investigated as a means of increasing the sensitivity of the determination of low quantities of the encapsulated protein. […]"}, "[11]": {"tested_on": "SH-SYSY neuroblastoma cells", "assay": "GDNF activity: activation of AKT and MAPK", "format": "cell-based, human", "conditions": "20 ng/ml hGDNF; free, encapsulated or added to empty vesicles; Western blot", "procedure": "To determine the activity of GDNF, we measured the effect of 20 ng/ml hGDNF on the activation of the enzymes AKT and MAPK using SH-SYSY neuroblastoma cells (obtained from the ATTC). For this measurement, we plated the cells in 12 well plates coated with PEI at a density range of 3×10^5-6×10^5 cells/well 48 h prior to the bioassay. Cells were deprived of serum for 2.5 h, stimulated by the test material (plain medium as a control or free GDNF or encapsulated GDNF), washed once with ice-cold PBS and then lysed in […] sample buffer. The lysates were boiled, sonicated and centrifuged and then loaded onto 10% acrylamide gel for SDS-PAGE. After the electrophoresis, the samples were immune-blotted using antibodies against phospho-MAPK44/42 and against phospho-AKT.\nThe effect of the encapsulation process on GDNF activity was also examined by treating neuroblastoma cells that respond to GDNF by activation of kinases, particularly AKT and MAPK. […] AKT and MAPK are activated when they are phosphorylated and GDNF induces phosphorylation of these enzymes in SH-SY5Y neuroblastoma cells. If GDNF activity is impaired, it will not phosphorylate AKT and MAPK to pAKT and pMAPK, respectively. pAKT and pMAPK can be detected by specific antibodies for the phosphorylated forms of the enzymes on a Western blot."}, "[12]": {"assay": "Trypsinogen encapsulation in bolaamphiphilic vesicles (Sephadex column, UV or fluorescence)", "format": "physicochemical", "conditions": "10 mg/ml GLH-19 + GLH-20 vesicles"}, "[13]": {"conditions": "formulated with CHOL and CHEMS at a ratio of 2:1:1"}, "[14]": {"conditions": "vesicles from the bolaamphiphile without additives"}}, "note": "“Also recorded” adds a separate entry of the source."}
{"molecule": "carboxyfluorescein [free CF]", "values": [{"measurement": "brain penetration of free CF", "setting": "[1]", "result": "hardly entered the brain"}, {"measurement": "brain penetration of free CF", "setting": "[1]; listed as Free CF", "result": "did not penetrate into the brain in significant amounts"}]}
{"molecule": "free enkephalin: non-encapsulated enkephalin administered together with empty vesicles (YGGFL; Leu-enkephalin; UniProt P01210 230-234, looked up)", "values": [{"measurement": "analgesia", "setting": "[2]", "result": "not"}]}
{"molecule": "CCCCCCCCC(OC(=O)C[N+](C)(C)CCOC(C)=O)C(O)CCCCCCCC(=O)OCCCCCCCCCCOC(=O)CCCCCCCC(O)C(CCCCCCCC)OC(=O)C[N+](C)(C)CCOC(C)=O.[Cl-].[Cl-]", "note": "(stereo not drawn) [GLH-32]", "values": [{"measurement": "hydrolysis of ACh head group by AChE / ChE", "setting": "AChE [3]", "result": "hydrolyzed by AChE"}, {"measurement": "type of inhibition of ATC hydrolysis by AChE", "setting": "AChE [4]", "result": "competitive inhibitors"}, {"measurement": "Diameter (nm)", "setting": "[5]; [13]", "result": 134, "unit": "nm"}, {"measurement": "Weight (%) main peak", "setting": "[5]; [13]", "result": 100, "unit": "%"}, {"measurement": "Diameter (nm)", "setting": "[5]; [14]", "result": 345, "unit": "nm"}, {"measurement": "Weight of Main peak (%)", "setting": "[5]; [14]", "result": 68, "unit": "%"}]}
{"molecule": "un-encapsulated albumin-FITC: albumin-FITC (non-encapsulated)", "values": [{"measurement": "brain accumulation of albumin-FITC", "setting": "[6]", "result": "little, if any, brain accumulation"}]}
{"molecule": "CCCCCC(OC(=O)C[N+](C)(C)CCOC(C)=O)C(O)C/C=C\\CCCCCCCC(=O)NCCCCCCCCCCOC(=O)CCCCCCC/C=C\\CC(O)C(CCCCC)OC(=O)C[N+](C)(C)CCOC(C)=O.[Cl-].[Cl-]", "note": "(stereo not drawn) [GLH-20 (empty vesicles)]", "values": [{"measurement": "vesicle stability in storage", "setting": "[7]", "result": "stable in storage"}]}
{"molecule": "CCCCCC(OC(=O)CCCC(=O)OCC[N+](C)(C)C)C(O)C/C=C\\CCCCCCCC(=O)NCCCCCCCCCCNC(=O)CCCCCCC/C=C\\CC(O)C(CCCCC)OC(=O)CCCC(=O)OCC[N+](C)(C)C.[Cl-].[Cl-]", "note": "(stereo not drawn) [GLH-19]", "values": [{"measurement": "hydrolysis of ACh head group by AChE / ChE", "setting": "AChE [3]", "result": "not hydrolyzed by AChE"}, {"measurement": "toxicity relative to GLH-20", "setting": "[8]", "result": "less toxic"}]}
{"molecule": "CCCCCC(OC(=O)C[N+](C)(C)CCOC(C)=O)C(O)C/C=C\\CCCCCCCC(=O)NCCCCCCCCCCOC(=O)CCCCCCC/C=C\\CC(O)C(CCCCC)OC(=O)C[N+](C)(C)CCOC(C)=O.[Cl-].[Cl-]", "note": "(stereo not drawn) [GLH-20]", "values": [{"measurement": "hydrolysis of ACh head group by AChE / ChE", "setting": "AChE [3]", "result": "hydrolyzed by choline esterases; also recorded: significantly faster"}, {"measurement": "type of inhibition of ATC hydrolysis by AChE", "setting": "AChE [4]", "result": "competitive inhibitors"}, {"measurement": "Diameter (nm)", "setting": "[5]; [13]", "result": 120, "unit": "nm"}, {"measurement": "Weight (%) main peak", "setting": "[5]; [13]", "result": 100, "unit": "%"}, {"measurement": "Diameter (nm)", "setting": "[5]; [14]", "result": 368, "unit": "nm"}, {"measurement": "Weight of Main peak (%)", "setting": "[5]; [14]", "result": 97, "unit": "%"}]}
{"molecule": "B1", "values": [{"measurement": "GDNF integrity after encapsulation with sonication", "setting": "[9]", "result": "no fragmentation"}, {"measurement": "percent encapsulation", "setting": "[10]", "result": 66, "unit": "%"}, {"measurement": "phosphorylation of AKT and MAPK", "setting": "[11]", "result": "same degree of phosphorylation"}]}
{"molecule": "B2", "values": [{"measurement": "percent encapsulation", "setting": "[12]; 50 μg/ml trypsinogen (AlexaFluor-488)", "result": 54, "unit": "%"}, {"measurement": "percent encapsulation", "setting": "[12]; 100 μg/ml trypsinogen (AlexaFluor-488)", "result": 42, "unit": "%"}]}
